Test results: patent publication EP0162545A2, “Enhanced bioconversion processes” (BETZ EUROPE, INC., priority 1984, dated 1985)

How the values were obtained:
Klebsiella [1] = assay: CO2 evolution from 14C-D-glucose, second series; assay type: cell-based; parameters: Cumulative Growth Index Reading (CO2 Blowoff) 0 HR: scale not given here
Method: (§1) Experiments to look at the above conclusions in depth were performed. In these experiments, cultures of Klebsiella were challenged with various concentrations of BNS and the effects on C02 evolution from glucose, viability, TOC (Total Organic Carbon), TIC (Total Inorganic Carbon) production, removal, and DO (Dissolved Oxygen) removal were determined. Concentrations of BNS from 0.05 to 100 µg/mL were used. […] CO2 evolution decreased after 5 gg/mL. […] The viability dropped off after that with 99% inhibition at concentrations somewhere between 10 - 20 µg/mL. Organic carbon removal gave the most puzzling pattern. […] CO2 was produced, however, as reflected by the C02 blowoff experiments and the TIC data. The organic carbon being oxidized (removed) must have been cancelled out by an organic carbon addition caused by limited bacterial lysis. This phenomenon was investigated again. […] It appeared that 5 ppm BNS would be the maximum concentration that could be used for the desired effect, with the majority of favorable results occurring in the 0.05 - 2 ppm range.
The experiments coordinating the measurements of C02 evolution, TOC reduction, viable count, and dissolved oxygen (DO) reduction were performed as follows: C02 evolution by Klebsiella was measured as described previously using a narrowed set of BNS concentrations. At the same time, Klebsiella cells grown overnight in nutrient broth were standardized into an inoculum of 250 Klett units. These cells were used to inoculate 19 mL quantities of fresh nutrient broth (1 mL inoculum) in baffled shake flasks. These shake flasks were placed into water bath shakers at 37°C and allowed to shake for 5 hours. Concentrations of BNS equivalent to the C02 blowoff experiment were added to the flasks at the beginning of the experiment. Controls containing no BNS were included for comparisons. Total organic carbon measurements were taken after 5 hours incubation. Viable counts were done at 1 hour, 3 hours, and 5 hours. A parallel experiment was performed using the same setup except that after BNS additions, the flasks were shaken for 30 minutes and then held stationary. DO measurements were taken at 5 hours incubation with the use of a YSI Model 54A oxygen meter.

Klebsiella [2] = assay type: cell-based
Method: as §1
At 0.05 µg/mL level, TOC removal was equivalent to the untreated control. When BNS concentrations of 0.5 µg/mL were used, TOC removal ceased and in the second series of experiments, TOC levels increased sharply at 0.5 - 2 µg/mL concentrations of BNS. Similar results were obtained when BNS was used to treat bacteria growing in the glucose salts medium. No increases in TOC removal were seen. The TOC concentration increased rapidly at BNS concentration of 0.5 - 2 ppm only to fall back to control levels at 5 ppm. The cells then added TOC to the medium again from 5 - 1000 µg/mL concentrations of BNS. […]
The experiments coordinating the measurements of C02 evolution, TOC reduction, viable count, and dissolved oxygen (DO) reduction were performed as follows: C02 evolution by Klebsiella was measured as described previously using a narrowed set of BNS concentrations. […] These cells were used to inoculate 19 mL quantities of fresh nutrient broth (1 mL inoculum) in baffled shake flasks. […]

## O=[N+]([O-])C(Br)=Cc1ccccc1 [BNS, beta-bromo-beta-nitrostyrene]
Klebsiella [1]; BNS 0.05 μg/mL
  Cumulative Growth Index Reading (CO2 Blowoff) 0 HR: 2
  Cumulative Growth Index Reading (CO2 Blowoff) 0.5 HR: 762
  Cumulative Growth Index Reading (CO2 Blowoff) 1 HR: 1,082
  Cumulative Growth Index Reading (CO2 Blowoff) 3 HR: 1,642
  Cumulative Growth Index Reading (CO2 Blowoff) 5 HR: 2,012
Klebsiella [1]; BNS 0.1 μg/mL
  Cumulative Growth Index Reading (CO2 Blowoff) 0 HR: 2
  Cumulative Growth Index Reading (CO2 Blowoff) 0.5 HR: 877
  Cumulative Growth Index Reading (CO2 Blowoff) 1 HR: 1,197
  Cumulative Growth Index Reading (CO2 Blowoff) 3 HR: 1,797
  Cumulative Growth Index Reading (CO2 Blowoff) 5 HR: 2,197
Klebsiella [1]; BNS 0.5 μg/mL
  Cumulative Growth Index Reading (CO2 Blowoff) 0 HR: 1
  Cumulative Growth Index Reading (CO2 Blowoff) 0.5 HR: 801
  Cumulative Growth Index Reading (CO2 Blowoff) 1 HR: 1,121
  Cumulative Growth Index Reading (CO2 Blowoff) 3 HR: 1,761
  Cumulative Growth Index Reading (CO2 Blowoff) 5 HR: 2,201
Klebsiella [1]; BNS 1.0 μg/mL
  Cumulative Growth Index Reading (CO2 Blowoff) 0 HR: 1
  Cumulative Growth Index Reading (CO2 Blowoff) 0.5 HR: 761
  Cumulative Growth Index Reading (CO2 Blowoff) 1 HR: 1,091
  Cumulative Growth Index Reading (CO2 Blowoff) 3 HR: 1,741
  Cumulative Growth Index Reading (CO2 Blowoff) 5 HR: 2,201
Klebsiella [1]; BNS 2 μg/mL
  Cumulative Growth Index Reading (CO2 Blowoff) 0 HR: 2
  Cumulative Growth Index Reading (CO2 Blowoff) 0.5 HR: 752
  Cumulative Growth Index Reading (CO2 Blowoff) 1 HR: 1,072
  Cumulative Growth Index Reading (CO2 Blowoff) 3 HR: 1,732
  Cumulative Growth Index Reading (CO2 Blowoff) 5 HR: 2,212
Klebsiella [1]; BNS 5 μg/mL
  Cumulative Growth Index Reading (CO2 Blowoff) 0 HR: 0
  Cumulative Growth Index Reading (CO2 Blowoff) 0.5 HR: 750
  Cumulative Growth Index Reading (CO2 Blowoff) 1 HR: 1,032
  Cumulative Growth Index Reading (CO2 Blowoff) 3 HR: 1,570
  Cumulative Growth Index Reading (CO2 Blowoff) 5 HR: 1,980
Klebsiella [1]; BNS 10 μg/mL
  Cumulative Growth Index Reading (CO2 Blowoff) 0 HR: 2
  Cumulative Growth Index Reading (CO2 Blowoff) 0.5 HR: 682
  Cumulative Growth Index Reading (CO2 Blowoff) 1 HR: 952
  Cumulative Growth Index Reading (CO2 Blowoff) 3 HR: 1,392
  Cumulative Growth Index Reading (CO2 Blowoff) 5 HR: 1,662
Klebsiella [1]; BNS 20 μg/mL
  Cumulative Growth Index Reading (CO2 Blowoff) 0 HR: 1
  Cumulative Growth Index Reading (CO2 Blowoff) 0.5 HR: 451
  Cumulative Growth Index Reading (CO2 Blowoff) 1 HR: 616
  Cumulative Growth Index Reading (CO2 Blowoff) 3 HR: 916
  Cumulative Growth Index Reading (CO2 Blowoff) 5 HR: 1,101
Klebsiella [1]; BNS 50 μg/mL
  Cumulative Growth Index Reading (CO2 Blowoff) 0 HR: 1
  Cumulative Growth Index Reading (CO2 Blowoff) 0.5 HR: 271
  Cumulative Growth Index Reading (CO2 Blowoff) 1 HR: 381
  Cumulative Growth Index Reading (CO2 Blowoff) 3 HR: 651
  Cumulative Growth Index Reading (CO2 Blowoff) 5 HR: 876
Klebsiella [1]; BNS 100 μg/mL
  Cumulative Growth Index Reading (CO2 Blowoff) 0 HR: 2
  Cumulative Growth Index Reading (CO2 Blowoff) 0.5 HR: 97
  Cumulative Growth Index Reading (CO2 Blowoff) 1 HR: 202
  Cumulative Growth Index Reading (CO2 Blowoff) 3 HR: 287
  Cumulative Growth Index Reading (CO2 Blowoff) 5 HR: 365
Klebsiella [2]
  concentration for 99% inhibition of viability: 10 to 20 µg/mL
  concentrations at which cells retained viability equal to the control level: up to 2 µg/mL
  concentrations of significant toxicity: 5 to 10 µg/mL
